In patent publication US11332470B2, “CXCR4 inhibitors and uses thereof” (X4 Pharmaceuticals, Inc., priority 2016, dated 2022):

Legend:
CXCR4 (U87.CXCR4 cells) = biological target: T1, CXCR4 (U87.CXCR4 cells) (Homo sapiens, UniProt P61073); assay: Intracellular CXCL-12-induced calcium mobilization assay (FLIPR); assay type: cell-based; conditions: CXCL-12 25-50 ng/mL, read-out: IC50 CXCL-12 Ca2+ flux U87.CXCR4+
T1 construct: expressed in transfected cells; host or cells: U87 (U87.CXCR4)
Summary of the method: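 U87.CXCR4 cells were loaded with 4 μM Fluo-2 AM for 45 min at 37 °C in HBSS/20 mM HEPES/0.2% BSA, pH 7.4. Calcium flux induced by CXCL-12 (25-50 ng/mL) was monitored kinetically by FLIPR fluorescence at 37 °C.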

[1] = biological target: T2, CXCR4 (Jurkat cells expressing CXCR4) (Homo sapiens, UniProt P61073); assay: Chemokine (CXCL12-AF647) binding inhibition assay; conditions: CXCL12-AF647 25 ng/mL, read-out: IC50 CXCL-12 binding Jurkat
T2 construct: Jurkat cells expressing CXCR4; endogenous in cells; host or cells: Jurkat
Summary of the method: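 Cells in HBSS, 20 mM HEPES, 0.2% BSA, pH 7.4, preincubated 15 min at room temperature with compound, then 25 ng/mL CXCL12-AF647 for 30 min. After washing and paraformaldehyde fixation, bound ligand read by flow cytometry; percent inhibition calculated from MFI relative to unlabeled and ligand-only controls.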

in vitro = conditions: human, Caco-2, pH 7.4
Summary of the method: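 Compound at 10 μM in HBSS pH 7.4 dosed A-to-B and B-to-A across Caco-2 monolayers, 90 min at 37 °C, duplicates. Monolayer integrity by TEER and lucifer yellow (5 μM, fluorescence 485/535 nm); compound quantified by LC-MS/MS.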

T1 sequence (P61073 whole entry): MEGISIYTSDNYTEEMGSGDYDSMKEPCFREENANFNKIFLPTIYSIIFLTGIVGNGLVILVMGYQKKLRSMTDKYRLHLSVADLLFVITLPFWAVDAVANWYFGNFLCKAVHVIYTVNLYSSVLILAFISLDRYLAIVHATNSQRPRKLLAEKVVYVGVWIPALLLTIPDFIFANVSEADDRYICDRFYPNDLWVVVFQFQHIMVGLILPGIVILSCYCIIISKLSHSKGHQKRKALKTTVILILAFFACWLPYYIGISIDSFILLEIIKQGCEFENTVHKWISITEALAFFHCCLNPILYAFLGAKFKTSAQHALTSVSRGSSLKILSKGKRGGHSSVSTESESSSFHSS
T2 sequence (P61073 whole entry): as above

Compound	IC50 (CXCR4 (U87.CXCR4 cells)) [nM]	IC50 [1] [nM]	Papp A→B at 90 min, 10 μM (in vitro) [×10⁻⁶ cm/s]	Papp B→A at 90 min, 10 μM (in vitro) [×10⁻⁶ cm/s]	efflux ratio at 90 min, 10 μM (in vitro)
Cc1cccnc1C1CCCN1Cc1nc2cccc(N3CCN(C)CC3)n2c1CO (stereo not drawn) [Compound I-8, (5-(4-methylpiperazin-1-yl)-2-((2-(3-methylpyridin-2-yl)pyrrolidin-1-yl)methyl)imidazo[1,2-a]pyridin-3-yl)methanol]	100 to 1000	0.01 to 100	0.1 to 10	10 to 30	> 30
Cc1c(CN2CCCC2c2ncccc2Cl)nc2cccc(N3CCN(C)CC3)n12 (stereo not drawn) [Compound I-47]	100 to 1000	0.01 to 100	0.1 to 10	10 to 30	0.1 to 10
Cc1cccnc1C1CCCN1Cc1nc2cccc(N3CCN(C)C4(CC4)C3)c2[nH]1 (stereo not drawn) [Compound I-28]	100 to 1000	100 to 1000	0.1 to 10	10 to 30	0.1 to 10
CN1CCC(Cn2ccnc2CN2CCCC2c2ccccn2)CC1 (stereo not drawn) [Compound I-112]	100 to 1000	0.01 to 100	0.1 to 10	10 to 30	> 30
CN1CCN(c2cccc3nc(CN4CCCC4c4ncccc4Cl)c(F)n23)CC1 (stereo not drawn) [Compound I-35]	≥ 1000	100 to 1000	0.1 to 10	10 to 30	0.1 to 10
CN1CCN(c2c(CN3CCCC3c3ccccn3)nc3c(F)cccn23)CC1 (stereo not drawn) [Compound I-61]	100 to 1000	0.01 to 100	10 to 30	10 to 30	0.1 to 10
Cc1cccnc1C1CCCN1Cc1nc2c(N3CCN(C)CC3)cccc2[nH]1 (stereo not drawn) [Compound I-11]	0.01 to 100	0.01 to 100	0.1 to 10	10 to 30	0.1 to 10
CN1CCN(c2cccc3[nH]c(CN4CCCC4c4nccn4C)nc23)CC1 (stereo not drawn) [Compound I-51]	≥ 1000	100 to 1000	0.1 to 10	10 to 30	0.1 to 10
c1ccc(OCc2c(CN3CCCC3c3ccccn3)nc3ccccn23)nc1 (stereo not drawn) [Compound I-94]	≥ 1000	≥ 1000	10 to 30	> 30	0.1 to 10
c1ccc(C2CCCN2Cc2ccccc2-n2cccn2)nc1 (stereo not drawn) [Compound I-65]	≥ 1000	100 to 1000	> 30	> 30	0.1 to 10
Cc1cccnc1C1CCCN1Cc1nccn1CC1CCN(C2CC2)CC1 (stereo not drawn) [Compound I-107]	0.01 to 100	0.01 to 100	0.1 to 10	10 to 30	0.1 to 10
CN1CCN(c2c(CN3CCCC3c3ncccc3F)nc3ccccn23)CC1 (stereo not drawn) [Compound I-60]	0.01 to 100	0.01 to 100	10 to 30	10 to 30	0.1 to 10
N#CCCc1c(CN2CCCC2c2ccccn2)nc2ccccn12 (stereo not drawn) [Compound I-82]	≥ 1000	100 to 1000	10 to 30	> 30	0.1 to 10
CN1CCN(c2cccc3nc(C4CCCN4Cc4ccccn4)[nH]c23)CC1 (stereo not drawn) [Compound I-104]	100 to 1000	0.01 to 100	0.1 to 10	> 30	0.1 to 10
Cc1cccnc1C1CCCN1Cc1nc2ccccn2c1N1CCN(C)CC1 (stereo not drawn) [Compound I-40]	0.01 to 100	0.01 to 100	0.1 to 10	> 30	10 to 30
CN1CCN(c2c(C3CCCN3Cc3ncccn3)nc3ccccn23)CC1 (stereo not drawn) [Compound I-102]	≥ 1000	100 to 1000	0.1 to 10	> 30	> 30
CN1CCN(c2c(CN3CCCC3c3ccccn3)nc3cccc(F)n23)CC1 (stereo not drawn) [Compound I-64]	100 to 1000	0.01 to 100	0.1 to 10	10 to 30	0.1 to 10
c1ccc(C2CCCN2Cc2nc3ccccn3c2N2CCN(C3CC3)CC2)nc1 (stereo not drawn) [Compound I-57]	100 to 1000	0.01 to 100	10 to 30	10 to 30	0.1 to 10
Cc1cccnc1C1CCCN1Cc1nc2cccc(N3CCN(C)CC3)n2c1C (stereo not drawn) [Compound I-46]	100 to 1000	0.01 to 100	0.1 to 10	10 to 30	> 30
Cc1cccnc1C1CCCN1Cc1nc2cccc(N3CCN(C)CC3)n2c1Br (stereo not drawn) [Compound I-7, 3-bromo-5-(4-methylpiperazin-1-yl)-2-((2-(3-methylpyridin-2-yl)pyrrolidin-1-yl)methyl)imi-dazo[1,2-a]pyridine]	100 to 1000	100 to 1000	0.1 to 10	10 to 30	0.1 to 10
Cc1cccnc1C1CCCCN1Cc1ccccc1-n1cccn1 (stereo not drawn) [Compound I-2, 2-(1-(2-(1H-pyrazol-1-yl)benzyl)piperidin-2-yl)-3-methylpyridine]	≥ 1000	≥ 1000	> 30	> 30	0.1 to 10
CN1CCN(c2cccc3nc(CN4CCCC4c4ccccn4)[nH]c23)CC1 (stereo not drawn) [Compound I-44]	100 to 1000	0.01 to 100	10 to 30	> 30	0.1 to 10
c1ccc(C2CCCN2Cc2nc3ccccn3c2N2CCOCC2)nc1 (stereo not drawn) [Compound I-91]	≥ 1000	100 to 1000	> 30	> 30	0.1 to 10
Cc1cccnc1C1CCCN1Cc1nc2cccc(N3CCN(C)CC3)n2c1F (stereo not drawn) [Compound I-34]	100 to 1000	100 to 1000	0.1 to 10	10 to 30	0.1 to 10
